# According to patent US10662203B2, “Pyrido[2,3-b]indole compounds for the treatment and prophylaxis of bacterial infection” (Hoffmann-La Roche Inc., priority 2017, dated 2020):
# How the values were obtained:
# [1] = tested on: K. pneumoniae (ATCC10031); assay: 50% growth inhibitory concentration (IC50) determination assay; assay type: cell-based; conditions: Klebsiella pneumoniae, Iso-Sensitest broth, 0.098 = detection limit
# How it was run: (§1)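 Broth microdilution in Iso-Sensitest medium, ~5×10^5 CFU/mL inoculum, compound 50–0.097 μM final (two-fold series), 35±2° C; OD600 read every 20 min over 16 h.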
# A. baumannii (ATCC17978) = assay: as above; assay type: cell-based; conditions: Iso-Sensitest broth, 0.098 = detection limit
# How it was run: as §1
# S. aureus (ATCC29213) = assay: as above; assay type: cell-based; conditions: Staphylococcus aureus, Iso-Sensitest broth, 0.098 = detection limit
# How it was run: as §1
# [2] = Lyophilisation solubility assay (LYSA); assay type: physicochemical; conditions: 0.05 M phosphate buffer, HPLC-UV; for solubility thermodynamic: phosphate buffer, pH 6.5, aqueous buffer, thermodynamic from solid
# Protocol: Lyophilisation Solubility Assay (LYSA):
# The solubility of compounds of present invention was assessed by LYSA assay. Samples were prepared in duplicate from 10 mM DMSO stock solutions (20 μL) diluted in 30 μL pure DMSO. After evaporation of DMSO with a centrifugal vacuum evaporator, the residue was dissolved in 0.05 M phosphate buffer (150 μL, pH 6.5), which was stirred for one hour and shook for two hours. After one night, the solution was filtered using a microtiter filter plate. Then the filtrate and its 1/10 dilution were analyzed by HPLC-UV.
# [3] = Acinetobacter baumannii, ATCC17978, A. baumannii ATCC17978
Structure (SMILES),IC50 [1] [µM],IC50 (A. baumannii (ATCC17978); [3]) [µM],IC50 (S. aureus (ATCC29213)) [µM],solubility thermodynamic [2] [µg/mL],IC50 (A. baumannii (ATCC17978); A. baumannii ATCC17978) [µM],Lysa ([2]; pH 6.5) [µg/mL]
CNc1cc(F)cc2c1[nH]c1ncc(-c3cnc4c(c3)c(=O)c(C(=O)O)cn4C)c(N3CC4[C@H](CCCN4C)C3)c12 (some centres unmarked) [Example 1.110],< 0.098,0.074,< 0.098,71,,
CNc1cc(F)cc2c1[nH]c1ncc(-c3cnc4c(c3)c(=O)c(C(=O)O)cn4NC)c(N3CC4[C@H](CCCN4C)C3)c12 (some centres unmarked) [Example 1.111],< 0.098,0.115,< 0.098,112,,
CNc1cc(F)c(F)c2c1[nH]c1ncc(-c3cnc4c(c3)c(=O)c(C(=O)O)cn4C)c(N3CCC4(F)CN(C)CC34)c12 (centres unmarked) [Example 1.120],< 0.098,0.169,< 0.098,37,,
CNc1cc(F)c(F)c2c1[nH]c1ncc(-c3cnc4c(c3)c(=O)c(C(=O)O)cn4NC)c(N3CCC4(F)CN(C)CC34)c12 (centres unmarked) [Example 1.121],< 0.098,0.215,< 0.098,58,,
CCNc1cc(C(F)(F)F)cc2c1[nH]c1ncc(-c3cnc4c(c3)c(=O)c(C(=O)O)cn4NC)c(N3CC[C@H]4CN(C)CC43)c12 (some centres unmarked) [Example 1.123],< 0.098,0.696,< 0.098,48,,
CNc1cc(F)c(F)c2c1[nH]c1ncc(-c3cnc4c(c3)c(=O)c(C(=O)O)cn4C)c(N3CCC4(CF)CN(C)CC34)c12 (centres unmarked) [Example 1.124],< 0.098,0.074,< 0.098,151,,
CNc1cc(F)c(F)c2c1[nH]c1ncc(-c3cnc4c(c3)c(=O)c(C(=O)O)cn4NC)c(N3CCC4(CF)CN(C)CC34)c12 (centres unmarked) [Example 1.125],< 0.098,0.079,< 0.098,262,,
CNc1cc(Cl)cc2c1[nH]c1ncc(-c3cnc4c(c3)c(=O)c(C(=O)O)cn4C)c(N3CCC(N(C)C)C3)c12 (centres unmarked) [Example 1.139],< 0.098,0.116,< 0.098,20,,
CNc1cc(F)cc2c1[nH]c1ncc(-c3cnc4c(c3)c(=O)c(C(=O)O)cn4C)c(N3CCC(CN(C)CCOC)C3)c12 (centres unmarked) [Example 1.141],< 0.098,0.485,< 0.098,485,,
CNc1cc(F)cc2c1[nH]c1ncc(-c3cnc4c(c3)c(=O)c(C(=O)O)cn4C)c(N3C[C@H](C)[C@@H](N(C)C)C3)c12 [Example 1.152],< 0.098,0.305,< 0.098,49,,
CNc1cc(F)cc2c1[nH]c1ncc(-c3cnc4c(c3)c(=O)c(C(=O)O)cn4NCC(F)(F)F)c(N3CCC[C@H]3CN(C)C)c12 [Example 1.153],< 0.098,0.388,0.372,201,,
CNc1cc(F)c(F)c2c1[nH]c1ncc(-c3cnc4c(c3)c(=O)c(C(=O)O)cn4C)c(N3CC4(CC4)C[C@H]3CN(C)C)c12 [Example 1.157],< 0.098,0.299,< 0.098,42,,
CNc1cc(F)c(F)c2c1[nH]c1ncc(-c3cnc4c(c3)c(=O)c(C(=O)O)cn4C)c(N3C[C@H](C)[C@@H](N(C)C)C3)c12 [Example 1.160],< 0.098,0.131,< 0.098,43,,
CNc1cc(F)c(F)c2c1[nH]c1ncc(-c3cnc4c(c3)c(=O)c(C(=O)O)cn4C)c(N3C[C@H](OC)[C@@H](N(C)C)C3)c12 [Example 1.170],< 0.098,,< 0.098,,0.292,119
CNc1cc(F)cc2c1[nH]c1ncc(-c3cnc4c(c3)c(=O)c(C(=O)O)cn4C)c(N3C[C@H](OC)[C@@H](N(C)C)C3)c12 [Example 1.171],< 0.098,0.445,< 0.098,46,,
CNc1cc(F)c(F)c2c1[nH]c1ncc(-c3cnc4c(c3)c(=O)c(C(=O)O)cn4C)c(N3C[C@H]4CCC[C@@H](N(C)C)[C@H]4C3)c12 [Example 1.175],< 0.098,0.277,< 0.098,113,,
CNc1cc(F)c(F)c2c1[nH]c1ncc(-c3cnc4c(c3)c(=O)c(C(=O)O)cn4C)c(N3CCC(CN(C)C)CC3)c12 [Example 1.183],< 0.098,0.103,< 0.098,96,,
CNc1cc(F)cc2c1[nH]c1ncc(-c3cnc4c(c3)c(=O)c(C(=O)O)cn4C)c(N3CC[C@H]4CN(C)CC43)c12 (some centres unmarked) [Example 1.187],< 0.098,0.096,< 0.098,> 730,,
CNc1cc(F)c(F)c2c1[nH]c1ncc(-c3cnc4c(c3)c(=O)c(C(=O)O)cn4C)c(N3CCC4(CCCN(C)C4)C3)c12 (centres unmarked) [Example 1.190],< 0.098,0.143,12.2,62,,
CNc1cc(F)c(F)c2c1[nH]c1ncc(-c3cnc4c(c3)c(=O)c(C(=O)O)cn4C)c(N3CCC4(CCCN(CCOC)C4)C3)c12 (centres unmarked) [Example 1.195],< 0.098,0.499,< 0.098,29,,
CNc1cc(F)c(F)c2c1[nH]c1ncc(-c3cnc4c(c3)c(=O)c(C(=O)O)cn4C)c(N3CCCC(N(C)CCOC)C3)c12 (centres unmarked) [Example 1.197],< 0.098,0.245,< 0.098,407,,
CNc1cc(F)c(F)c2c1[nH]c1ncc(-c3cnc4c(c3)c(=O)c(C(=O)O)cn4C)c(N3CCC(N(C)CCOC)C3)c12 (centres unmarked) [Example 1.198],< 0.098,0.215,< 0.098,56,,
CNc1cc(F)c(F)c2c1[nH]c1ncc(-c3cnc4c(c3)c(=O)c(C(=O)O)cn4C)c(N3CCC(N(C)CCO)C3)c12 (centres unmarked) [Example 1.200],< 0.098,0.57,0.1,69,,
CNc1cc(F)c(F)c2c1[nH]c1ncc(-c3cnc4c(c3)c(=O)c(C(=O)O)cn4C)c(N3CCCC(N(C)CCO)C3)c12 (centres unmarked) [Example 1.201],< 0.098,0.852,0.189,124,,
CNc1cc(F)c(F)c2c1[nH]c1ncc(-c3cnc4c(c3)c(=O)c(C(=O)O)cn4C)c(N3CCC(N4CCCC4)CC3)c12 [Example 1.203],< 0.098,0.778,0.208,303,,
CNc1cc(F)c(F)c2c1[nH]c1ncc(-c3cnc4c(c3)c(=O)c(C(=O)O)cn4C)c(N3CC[C@H]4CN(CCO)CC43)c12 (some centres unmarked) [Example 1.205],< 0.098,0.143,< 0.098,192,,
CNc1cc(F)c(F)c2c1[nH]c1ncc(-c3cnc4c(c3)c(=O)c(C(=O)O)cn4C(C)CO)c(N3CC[C@H]4CN(C)CC43)c12 (some centres unmarked) [Example 1.206],< 0.098,0.277,< 0.098,273,,
CNc1cc(F)cc2c1[nH]c1ncc(-c3cnc4c(c3)c(=O)c(C(=O)O)cn4C)c(N3CC4[C@H](CCN4C)C3)c12 (some centres unmarked) [Example 1.209],< 0.098,0.076,< 0.098,63,,
CNc1cc(F)cc2c1[nH]c1ncc(-c3cnc4c(c3)c(=O)c(C(=O)O)cn4C)c(N3CC[C@H]4CCN(C)C4C3)c12 (some centres unmarked) [Example 1.211],< 0.098,0.11,< 0.098,205,,
